# Results as given in patent US7674823B2, “DNA-PK inhibitors” (Cancer Research Technology Limited, priority 2001, dated 2010).
# Molecular target: T1, Mammalian DNA-PK, isolated from Hela cell nuclear extract (Homo sapiens, UniProt P78527)
# T1 construct: Mammalian DNA-PK, isolated from Hela cell nuclear extract; endogenous in cells; host or cells: HeLa cell nuclear extract (purified per Gell and Jackson 1999)
# Assay: DNA-PK inhibition assay (33P-ATP, filter binding)
# Format: biochemical
# Details: not given
# Description: In order to assess the inhibitory action of the compounds against DNA-PK in vitro, the following assay was used to determine IC50 values.
# The total assay volume per well was 40 μl.
# After 10 minutes of incubation at 30° C. the reactions were initiated by the addition of Na-ATP (50 μM final), ^33p-γATP and a 30mer double stranded DNA oligonucleotide (10 ng/μl) in a volume of 10 μl. Designated positive and negative reaction wells were done in combination with compound wells (unknowns) in order to calculate % enzyme activities. The plates were then shaken for 2 minutes and incubated at 30° C. for 45 minutes.
# Following the incubation, the reactions were quenched by the addition of 50 μl 30% acetic acid to each well. The plates were then shaken for 5 minutes and the contents of each plate (80 μl from each well) transferred over to a 96 well Polyfiltronics filtration plate, containing P81-phosphocellulose membrane (TRADE MARK)(Whatman, UK). The solutions were vacuum pumped through the membrane and each well membrane washed four times using 300 μl of 15% acetic acid. The well membranes were then air dried and 20 μl of scintillant was added to each well.
# The plates were transferred to a TopCount NXT (TRADE MARK) (Packard, UK) for scintillation counting. Values recorded are counts per minute (cpm) following a 1 minute counting time for each well.
# The enzyme activity for each compound is then calculated using the following equation: […]
# These are determined over a range of different concentrations, normally from 10 μM down to 0.01 μM. Such IC50 values are used as comparative values to identify increased compound potencies.
row,IC50 [µM],SMILES
1,< 1,COc1ccc(-c2cccc3c(=O)cc(N4CCOCC4)oc23)cc1 [Compound 385]
2,< 1,O=c1cc(N2CCOCC2)oc2c(-c3cccc(-c4ccccc4)c3)cccc12 [Compound 389]
3,< 1,O=c1cc(N2CCOCC2)oc2c(-c3ccc(CO)cc3)cccc12 [Compound 394]

# Same assay, conditions: IC50 of less than about 1 μM and/or % inhibition of more than about 50 at 1 μM; read-out: DNA-PK inhibition IC50 (particular efficacy)
row,IC50 [µM],SMILES
1,< 1,O=c1cc(N2CCOCC2)oc2cc(OCCS(=O)(=O)c3ccccc3)ccc12 [Compound 366]
2,< 1,O=C1c2ccccc2C(=O)N1Cc1cccc(-c2ccc3c(=O)cc(N4CCOCC4)oc3c2)c1 [Compound 375]
3,< 1,O=c1cc(N2CCOCC2)oc2c(-c3ccsc3)cccc12 [Compound 403]
4,< 1,O=c1cc(N2CCOCC2)oc2c(-c3cc4ccccc4s3)cccc12 [Compound 408]
5,< 1,CC(=O)c1ccc(-c2cccc3c(=O)cc(N4CCOCC4)oc23)s1 [Compound 409]
6,< 1,O=c1cc(N2CCOCC2)oc2c(-c3cccc4c3oc3ccccc34)cccc12 [Compound 410]

# Same assay, conditions: concentration at which 50% of the enzyme activity is inhibited; read-out: DNA-PK Inhibition IC50
row,IC50 [µM],SMILES
1,0.7,"O=c1cc(N2CCOCC2)oc2ccc(O)cc12 [Compound 343, 6-Hydroxy-2-(morpholin-4-yl)-chromen-4-one]"

# Test system: not given
# Assay: not given
# Details: not given
row,melting point [°C],SMILES
1,161 to 162,"O=c1cc(N2CCOCC2)cc(-c2ccccc2)o1 [Compound 1, 4-morpholin-4-yl-6-(phenyl)-pyran-2-one]"
2,230 to 232,"CC(C)(C)c1ccc(-c2cc(N3CCOCC3)cc(=O)o2)cc1 [Compound 2, 4-morpholin-4-yl-6-(4-(t-butyl)phenyl)-pyran-2-one]"
3,212 to 213,"COc1ccc(-c2cc(N3CCOCC3)cc(=O)o2)cc1 [Compound 3, 6-(4-methoxyphenyl)-4-morpholin-4-yl-pyran-2-one]"
4,214 to 216,"CC1CCC(C)N(c2cc(=O)n3ccc4ccccc4c3n2)C1 (stereo not drawn) [Compound 7, 2-(2,5-Dimethyl-piperidin-1-yl)pyrimido[2,1-a]isoquinolin-4-one]"
5,165 to 166,"O=c1cc(N2CCCC(CO)C2)nc2c3ccccc3ccn12 (stereo not drawn) [Compound 9, 2-(3-Hydroxymethyl-piperidin-1-yl)pyrimido[2,1-a]isoquinolin-4-one]"
6,174 to 175,"O=c1cc(NCC2CCCO2)nc2c3ccccc3ccn12 (stereo not drawn) [Compound 10, 2-[(Tetrahydro-furan-2-ylmethyl)-amino]pyrimido[2,1-a]isoquinolin-4-one]"
7,211 to 212,"O=c1cc(N(CCO)CCO)nc2c3ccccc3ccn12 [Compound 11, 2-[Bis-(2-hydroxy-ethyl)-amino]pyrimido[2,1-a]isoquinolin-4-one]"
8,195 to 196,"CN(CC(O)c1ccccc1)c1cc(=O)n2ccc3ccccc3c2n1 (stereo not drawn) [Compound 16, 2-[(2-Hydroxy-2-phenyl-ethyl)-methyl-amino]-pyrimido[2,1-a]isoquinolin-4-one]"
9,166 to 167,"CN(CCC#N)c1cc(=O)n2ccc3ccccc3c2n1 [Compound 17, 3-[Methyl-(4-oxo-4H-pyrimido[2,1-a]isoquinolin-2-yl)-amino]-propionitrile]"
10,162 to 163,"O=c1cc(NCCc2cccs2)nc2c3ccccc3ccn12 [Compound 18, 2-(2-Thiophen-2-yl-ethylamino)-pyrimido[2,1-a]isoquinolin-4-one]"
11,215 to 216,"O=c1cc(NCC(O)CO)nc2c3ccccc3ccn12 (stereo not drawn) [Compound 19, 2-(2,3-Dihydroxypropylamino)-pyrimido[2,1-a]isoquinolin-4-one]"
12,199 to 200,"CC(O)CNc1cc(=O)n2ccc3ccccc3c2n1 (stereo not drawn) [Compound 20, 2-(2-Hydroxypropylamino)-pyrimido[2,1-a]isoquinolin-4-one]"
13,159 to 161,"O=c1cc(NCC(O)c2cccc(O)c2)nc2c3ccccc3ccn12 (stereo not drawn) [Compound 21, 2-[2-Hydroxy-2-(3-hydroxy-phenyl)-ethylamino]-pyrimido[2,1-a]isoquinolin-4-one]"
14,218 to 221,"O=c1cc(NCCO)nc2c3ccccc3ccn12 [Compound 22, 2-(2-Hydroxy-ethylamino)-pyrimido[2,1-a]isoquinolin-4-one]"
